Measured values: patent US20090054376A1, “BENZOFURAN DERIVATIVES WITH THERAPEUTIC ACTIVITIES” (Pharmos Corporation, priority 2005, published 2009)
Where a name gives a salt, the structure may show the parent alone. Read-outs that look alike come from different tables or passages of the source.

Assays:
[1] = test system: visceral pain writhing responses; test: Visceral pain, acetic acid induced writhing responses; assay type: in vivo, Male ICR mice; details: for Percent Inhibition of Visceral Pain Writhing Responses / inhibition in vivo at 2 mg/kg: single dose 2 mg/kg i.v., compared to untreated group; for inhibition in vivo at 2 mg/kg: Mus musculus, iv, read-out: Percent Inhibition of Visceral Pain Writhing Responses
Procedure: Male ICR mice (average body weight 25 g, Harlan, Israel) were pretreated by i.v. injection at volume dose of 5 ml/kg of vehicle, control and test compounds at various doses. Other routes of administration were tested for selected compounds including i.m. or s.c. injections at volume dose of 2.5 ml/kg and p.o. gavage at volume dose of 5 ml/kg. Compounds were dissolved in CREMOPHOR®:Ethanol and diluted 1:20 in saline prior to injection or gavage. Compounds administered i.v. were injected fifteen minutes before pain induction, whereas compounds administered i.m., s.c. or p.o. were supplied thirty minutes before pain induction, unless otherwise indicated. Each treatment group, except for controls comprising at least 30 animals, was composed of at least 6 animals. Fifteen or thirty minutes after drug administration, depending on the route of administration, the mice were injected i.p. with 10 ml/kg of 0.6% acetic acid and the number of visceral pain related behaviors (writhing movements globally defined as WR, i.e. stretching, contractions of the abdomen accompanied by an elongation of the body and extension of the hind limbs) was counted over a period of 5 minutes, starting 5 minutes after the acetic acid administration. These visceral pain related behaviors were globally defined as writhing responses (WR). The results are expressed as mean number of writhing responses ±SEM. Data were analyzed using analysis of variance (ANOVA) followed by post-hoc Fisher test.

[2] = test system: carrageenan induced inflammatory pain and paw edema; test: Inflammatory pain and paw edema induced by carrageenan; assay type: in vivo, Male Sprague Dawley rats; details: for Percent Inhibition of Inflammatory Pain Responses, ΔForce / inhibition in vivo at 10 mg/kg / Percent Inhibition of Inflammatory Pain Responses, Edema / Percent Inhibition of Inflammatory Pain Responses, ΔLT: 10 mg/kg i.p.; for inhibition in vivo at 10 mg/kg / inhibition in vivo at 20 mg/kg: Rattus norvegicus, ip; for inhibition in vivo at 20 mg/kg: 20 mg/kg i.p. (two asterisks)
Procedure: Male Sprague Dawley rats (average body weight 200 g, Harlan, Israel) were transiently sedated by placement on dry ice for the duration of the injections. Rats were injected subcutaneously, in the subplantar region of one (right) paw with 0.1 ml of 2% w/v λ Carrageenan in sterile saline. […] Test compounds were, unless otherwise stated, administered i.p. at initial single dose of 3, 10 or 20 mg/kg, and volume dose of 5 ml/kg, immediately after the carrageenan injection. Selected compounds were also tested p.o. following oral gavage. Vehicle and celecoxib treated animals were used as controls. Each treatment group comprised at least seven animals.
Before induction of inflammatory pain and three hours after injection, the animals reactions to pain stimuli were tested in two systems. The first stimulus was thermal and assessed by the Plantar Test according to Hargreaves, using Ugo Basile Model 7370. The scale was set to an intensity of 50 arbitrary units. The latency time till the animal lift a paw as a reaction to the thermal stimulus was recorded for both the inflamed and non-inflamed hind paws. The second stimulus was mechanical (tactile) and assessed using a Dynamic Plantar Sesthesiomether (Ugo Basile Model 73400-002). […] Finally, the impact on paw edema was assessed. Paw thickness was measured using a dial thickness gauge (Spring-dial, constant low pressure gauge, Mitutoyo, TG/L-1, 0.01 mm) and paw volume was measured using a plethysmometer (model #7150, Ugo Basile, Italy). At the end of the study, animals were euthanized.
The results are measured as the differences between the two hind paws at time 0 and 3 hours both as ALT, for the latency time in the thermal part of the study, and as ΔForce, for the mechanical part of the study. The paw volume is expressed as percent from vehicle treated animals. Results are expressed as mean±SEM for each treatment group and the differences among those groups are analyzed by analysis of variance (ANOVA) followed by post-hoc Tukey's test.
Results refer to i.p. treatment with 10 mg/kg. Results marked with one asterisk refer to a dose 3 mg/kg, whereas two asterisks refer to 20 mg/kg. Celecoxib is included as reference.

[3] = test system: CB1 related cannabimimetic activity; test: Safety: body temperature, catalepsy, spontaneous locomotor activity, elevated plus maze, sensitivity to touch; assay type: in vivo, ICR male mice; details: 40 mg/kg i.v.
Procedure: In the present study, impact of compounds of the invention on the central nervous system was measured by monitoring the body temperature, catalepsy and spontaneous locomotor activity of rodents. These activities are part of the Tetrad assays which are indicative, if all parameters are affected, of CB1 mediated activity. In addition, lack of CNS psychomimetic effect was assessed in the elevated plus maze model. Finally, sensitivity to touch was determined in order to evaluate peripheral CB1 related activity.
ICR male mice (average body weight 25 g, Harlan, Israel) were administered the compounds of the invention i.v. at a dose of 2 mg/kg and at a volume dose of 5 ml/kg. The psychoactive cannabinoid HU-210 was used as positive control at the 100-fold lower dose of 0.02 mg/kg i.v. The following measurements were made starting 15 minutes after compound administration. All tests were completed for each animal within approximately 10 minutes. Rectal temperature was monitored using a thermistor probe (YSI model 400, USA). Spontaneous locomotion was assessed using the open field methodology. The number of squares crossed by the animals were recorded and analyzed during a period of three minutes. At the end of the open field test, the animals were tested for catalepsy symptoms. This was carried out by gently forcing the animal to stand on its hind paws when its front paws are holding on an elevated beam. The time for the animal to step down of the beam was measured in seconds. A normal animal withdraws the beam immediately whereas cataleptic animal tend to stay on the beam. The longer the animal stays leaning on the beam, the more cataleptic the animal is. The behavior of the animals was then assessed in the elevated plus maze. The elevated plus maze consists of two open arms and two arms that are enclosed by high walls (arms 30×10 cm, wall height 20 cm). The elevated plus maze is usually elevated 80 cm above the floor. The mouse is placed on the maze head facing an open arm, and the time spent in the different compartments of the maze (open arms, closed arms and central area) are measured for the next 5 minutes. Results are expressed as percent of the time spent in the open arms, normal animals preferring to stay in the closed arms of the maze. Finally, animals were gently touched by an observer blinded for the treatment group and their sensitivity scored according to the following scale: 0 not sensitive, 1 sensitive and 2 highly sensitive. Results are expressed as average±SEM. At the end of the study, the animals were euthanized.

[4] = 3 hours after carrageenan, reduction in paw swelling, read-out: Percent Inhibition of Inflammatory Pain Responses, Edema
[5] = 3 hours, mechanical stimulus, read-out: Percent Inhibition of Inflammatory Pain Responses, ΔForce
[6] = 3 hours, thermal stimulus, read-out: Percent Inhibition of Inflammatory Pain Responses, ΔLT
[7] = 3 hours after carrageenan, reduction in paw swelling
[8] = 3 hours, reduction in paw swelling, read-out: Percent Inhibition of Inflammatory Pain Responses, Edema

## CCCCCCC(C)(C)c1cc(O)c2c(c1)OC1C(N)CCCCC21 (stereo not drawn) [C7S-32 HCl salt, 9-Amino-2-(1,1-dimethylheptyl)-5,6,7,8,9,9a-hexahydro-4bH-10-oxa-benzo[α]azulen-4-ol]
[1]; 4 mg/kg i.v.
  inhibition of pain (writhing) response: 50%
[1]; 10 mg/kg i.v.
  inhibition of pain (writhing) response: 84%

## Cc1ccc(-c2cc(C(F)(F)F)nn2-c2ccc(S(N)(=O)=O)cc2)cc1 [Celecoxib, reference compound]
[2]; 3 hours, mechanical stimulus
  Percent Inhibition of Inflammatory Pain Responses, ΔForce: 2%
[2]; [4]
  inhibition in vivo at 10 mg/kg: 45%
[2]; [5]
  inhibition in vivo at 10 mg/kg: 2%
[2]; [6]
  inhibition in vivo at 10 mg/kg: 58%
[1]; doses up to 10 mg/kg
  activity in visceral pain model: inactive

## CCCCCCC(C)(C)c1cc(O)c2c(c1)OC1(C)C(C)CCC21 (stereo not drawn) [Compound C5S-4, 6-(1,1-dimethylheptyl)-1,8a-dimethyl-2,3,3a,8a-tetrahydro-1H-8-oxa-cyclo-penta[α]inden-4-ol]
[2]; [7]
  Percent Inhibition of Inflammatory Pain Responses, Edema: 49%
[2]; 3 hours, mechanical stimulus
  Percent Inhibition of Inflammatory Pain Responses, ΔForce: 88%
[2]; 3 hours, thermal stimulus
  Percent Inhibition of Inflammatory Pain Responses, ΔLT: 100%

## CCCCCCC(C)(C)c1cc(OC(=O)C=CC(=O)O)c2c(c1)OC1(C)C(C)CCC21 (stereo not drawn) [Compound C5S-5, But-2-enedioic acid mono-[6-(1,1-dimethylheptyl)-1,8a-dimethyl-2,3,3a,8a-tetrahydro-1H-8-oxa-cyclopenta[α]inden-4-yl]ester]
[1]
  Percent Inhibition of Visceral Pain Writhing Responses: 27%

## CCCCCCC(C)(C)c1cc(O)c2c3c(oc2c1)CCCC3 [Compound C6M-1, 3-(1,1-Dimethylheptyl)-6,7,8,9-tetrahydro-dibenzo-furan-1-ol]
[2]; [4]
  inhibition in vivo at 10 mg/kg: 31%
[2]; [5]
  inhibition in vivo at 10 mg/kg: 12%
[2]; [6]
  inhibition in vivo at 10 mg/kg: 12%

## CCCCC(C)(C)c1cc(OCC(O)CO)c2c(c1)OC1CCCCC21 (stereo not shown) [Compound C6S-10, 3-[3-(1,1-Dimethylpentyl)-5a,6,7,8,9,9a-hexahydro-dibenzofuran-1-yloxy]-propane-1,2-diol]
[2]; [5]
  inhibition in vivo at 20 mg/kg: 24%
[2]; [8]
  inhibition in vivo at 20 mg/kg: 37%
[2]; [6]
  inhibition in vivo at 20 mg/kg: 50%
[1]
  inhibition in vivo at 2 mg/kg: 28%

## CCCCC(C)(C)c1cc(O)c2c(c1)OC1CCCCC21C (stereo not shown) [Compound C6S-12, 3-(1,1-dimethylpentyl)-9a-methyl-5a,6,7,8,9,9a-hexahydro-dibenzofuran-1-ol]
[2]; [4]
  inhibition in vivo at 10 mg/kg: 53%
[2]; [5]
  inhibition in vivo at 10 mg/kg: 37%
[2]; [6]
  inhibition in vivo at 10 mg/kg: 33%

## CCCCC(C)(C)c1cc2c(c(OP(=O)(O)O)c1)C1CCCCC1O2 (stereo not shown) [Compound C6S-16, Phosphoric acid mono-[3-(1,1-dimethylpentyl)-5a,6,7,8,9,9a-hexahydro-dibenzofuran-1-yl]ester]
[2]; [5]
  inhibition in vivo at 20 mg/kg: 6%
[2]; [8]
  inhibition in vivo at 20 mg/kg: 31%
[2]; [6]
  inhibition in vivo at 20 mg/kg: 69%

## CCCCCCC(C)(C)c1cc(OCC(=O)O)c2c(c1)OC1CCCCC21 (stereo not shown) [Compound C6S-18, [3-(1,1-dimethylheptyl)-5a,6,7,8,9,9a-hexahydro-dibenzofuran-1-yloxy]-acetic acid]
[2]; [5]
  inhibition in vivo at 20 mg/kg: 31%
[2]; [8]
  inhibition in vivo at 20 mg/kg: 48%
[2]; [6]
  inhibition in vivo at 20 mg/kg: 49%

## COC(=O)c1cc(O)c2c(c1)OC1CCCCC21 (stereo not shown) [Compound C6S-21, 1-hydroxy-5a,6,7,8,9,9a-hexahydro-dibenzofuran-3-carboxylic acid methyl ester]
[2]; [8]
  inhibition in vivo at 20 mg/kg: 38%
[2]; [6]
  inhibition in vivo at 20 mg/kg: 44%

## CCCCCCC(C)(C)c1cc(OC(=O)CCNC)c2c(c1)OC1CC(C)(C)CCC21 (stereo not shown) [Compound C6S-39, 3-Methylamino-propionic acid 3-(1,1-dimethylheptyl)-7,7-dimethyl-5a,6,7,8,9,9a-hexahydro-dibenzofuran-1-yl ester]
[1]; 0.02 mg/kg i.v., compared to vehicle
  inhibition of writhing responses: 38%
[1]; 0.08 mg/kg i.v.
  inhibition of pain response: totally inhibited pain response
[1]; IC50 in visceral pain, i.v.
  fold more potent than morphine: 35 fold
[1]
  inhibition in vivo at 2 mg/kg: > 90%
[1]; i.v., estimated or calculated from dose range
  IC50 in visceral pain: 0.03 mg/kg

## CCCCC(C)(C)c1cc(O)c2c(c1)OC1CCCCCC21 (stereo not drawn) [Compound C7S-3, 2-(1,1-dimethylpentyl)-5,6,7,8,9,9a-hexahydro-4bH-10-oxa-benzo[α]azulen-4-ol]
[2]; [7]
  Percent Inhibition of Inflammatory Pain Responses, Edema: 43%
[2]; 3 hours, mechanical stimulus
  Percent Inhibition of Inflammatory Pain Responses, ΔForce: 35%
[2]; 3 hours, thermal stimulus
  Percent Inhibition of Inflammatory Pain Responses, ΔLT: 46%

## CCCCCCC(C)(C)c1cc2c(c(OP(=O)(O)O)c1)C1CCCCC(O)C1O2 (stereo not drawn) [Compound C7S-13, Phosphoric acid mono-[2-(1,1-dimethylheptyl)-9-hydroxy-5,6,7,8,9,9a-hexahydro-4bH-10-oxa-benzo[α]azulen-4-yl]ester]
[2]; [7]
  Percent Inhibition of Inflammatory Pain Responses, Edema: 34%
[2]; 3 hours, mechanical stimulus
  Percent Inhibition of Inflammatory Pain Responses, ΔForce: 6%
[2]; 3 hours, thermal stimulus
  Percent Inhibition of Inflammatory Pain Responses, ΔLT: 0%
[1]
  Percent Inhibition of Visceral Pain Writhing Responses: 72%

## CCCCCCC(C)(C)c1cc(OCC(=O)N(CC)CC)c2c(c1)OC1C(O)CCCCC21 (stereo not shown) [Compound C7S-17, 2-[2-(1,1-Dimethylheptyl)-9-hydroxy-5,6,7,8,9,9a-hexahydro-4bH-10-oxa-benzo[ ]azulen-4-yloxy]-N,N-diethyl-acetamide]
[3]; 0.5 hr after injection
  rectal temperature: 37.84±0.62 °C
[3]; 0.5 hr after injection, not statistically significant
  rectal temperature below controls: about 0.9 °C
[3]; three hours after injection
  rectal temperature (in words): back to baseline

## CCCCCCC(C)(C)c1cc(O)c2c(c1)OC1C(N)CCCCC21 (stereo not drawn) [Compound C7S-32, 9-Amino-2-(1,1-dimethylheptyl)-5,6,7,8,9,9a-hexahydro-4bH-10-oxa-benzo[α]azulen-4-ol]
[1]; 4 mg/kg i.v.
  inhibition of pain (writhing) response: 38%
[1]; 10 mg/kg i.v.
  inhibition of pain (writhing) response: 100%
